From US7390837B2, “Germicidal compositions containing phenylmalonaldehyde-type compounds, or mixtures of phenylmalonaldehyde-type compounds and phthalaldehydes, and methods of using such compositions for disinfection or sterilization” (Ethicon, Inc., priority 2004, dated 2008)

What was measured:
[1] = system: Mycobacterium terrae bacteria; experiment: bacterial suspension test; type: cell-based; conditions: for Germicidal Efficacy: summary Table 14
Protocol: The bacterial suspension test that was employed is described in Section VII.
The solutions were prepared by adding the appropriate amounts of the germicidal compounds to an aqueous solution. Unless otherwise mentioned all concentrations reported herein are expressed in (w/v) %. The pH of the solution was not adjusted. The tests were conducted at a temperature of about 20° C. (room temperature). The results are presented in terms of log reductions/mL. It is understood that these examples, as well as the other examples herein, are to be construed as merely illustrative, and not limiting.
In this test method, 9 mL of the germicide to be tested is placed in a tube, put into a water bath and allowed to come to the desired temperature. One mL of the test organism, including at least 7 logs/mL of Mycobacterium terrae bacteria, is added to the 9 mL of the germicide to be tested. […] It will be appreciated by those skilled in the art that other concentrations may be utilized by proper dilution and accounting.
At appropriate time intervals, 1 mL aliquots of the germicide-cell suspension were removed and added directly into 9 mL of a 1% glycine solution (neutralizer) and mixed thoroughly to neutralize the germicide in the transferred suspension. The glycine solution was prepared from solid glycine, which is available from VWR Scientific Products, among others. The above-identified 10 mL neutralized solution was then poured through a membrane filter having an average pore size of 0.45 micrometers. The filter was then rinsed twice with at least 150 mL of the 1% glycine solution per rinse. The filter was then placed on an agar plate and incubated for twenty-one days at 37° C. In the above procedure, if dilution was needed, then the 1 mL germicidal-cell suspension was diluted in 99 mL of a phosphate buffer before addition to the 9 mL of the 1% glycine solution. The phosphate buffer was DiLu-LoK™ Butterfields Phosphate Buffer, available from Hardy Diagnostics, of Santa Maria, Calif.
The surviving colonies are then counted. The data is plotted as S/So vs. time. So is the initial count of the bacteria in the above 10 mL solution which is at least 10^6 bacteria/mL, and S is the surviving bacteria from the above filter on the agar plate. The results of the experiments were presented in terms of log reductions. Log reduction is the difference between log(So) and log(S). As one example, if log(So)=6.2, and if there were 100 survivors, then the log(S)=2, and the log reduction was reported as 4.2.

solubility in water = type: physicochemical

## 4-pyridinyl-propanedial
[1]; Saturated (~2.3% w/v), 5 min, 20° C.
  Log Reductions/mL: 4.0 log reductions/mL

## O=CC(c1ccccc1)C(O)S(=O)(=O)[O-].[Na+] (centres unmarked) [1-hydroxy-3-oxo-2-phenyl-propane-1-sulfonic acid, sodium salt]
[1]; 0.6%, 20° C., 60 min, sodium salt
  Log Reductions/mL: Total Kill
[1]; 2.5%, 20° C., 10 min, sodium salt
  Log Reductions/mL: total kill

## O=Cc1ccc(Br)cc1C=O [4-bromo-phthalaldehyde]
[1]; 0.1%, 20° C., exposure time 30 minutes
  Log Reductions/mL: Total Kill

## O=Cc1ccc(Cl)cc1C=O [4-chloro-phthalaldehyde]
[1]; 2.7 w/v % in 20% isopropanol, 20° C., 5 min
  Log Reductions/mL: Total Kill

## O=Cc1ccc(F)cc1C=O [4-fluoro-phthalaldehyde]
[1]; 0.25%, 20° C., exposure time 60 minutes
  Log Reductions/mL: Total Kill

## O=Cc1ccccc1C(O)S(=O)(=O)[O-].[Na+] (centres unmarked) [(2-formyl-phenyl)-hydroxy-methane sulfonic acid, sodium salt]
[1]; 9.1%, 20° C., 5 min, listed as (2-formyl-phenyl)-hydroxy-methane sulfonate, sodium salt
  Log Reductions/mL: confluent
[1]; 9.1%, 20° C., 5 min, listed as H-SULF, sodium salt
  Log Reductions/mL: Confluent

## O=Cc1cccc(C=O)c1 [IPA, isophthalaldehyde, reference compound]
[1]; 0.3%, dissolved in 20% isopropanol, 20° C., 5 min (Table 11)
  Log Reductions/mL: Confluent
[1]; 0.3%, dissolved in 20% isopropanol, 20° C., 5 min (Table 11), listed as EPA
  Log Reductions/mL: confluent
[1]; 0.3%, dissolved in 20% isopropanol, 20° C., 5 min (Table 15)
  Log Reductions/mL: Confluent
[1]
  Germicidal Efficacy: Poor

## O=Cc1ccccc1C=O [OPA, phthalaldehyde]
[1]
  Germicidal Efficacy: Good
Solubility in water
  solubility in water: about 5 % by weight

## O=Cc1ccc(C=O)cc1 [TPA, terephthalaldehyde, reference compound]
[1]; 0.2%, dissolved in 20% isopropanol, 20° C., 5 min
  Log Reductions/mL: Confluent
[1]
  Germicidal Efficacy: Poor

## O=CC(C=O)c1ccccc1 [phenyl-propanedial]
[1]; 0.4%, 20° C., 60 min (Table 5)
  Log Reductions/mL: Total Kill
[1]; 0.44%, 20° C., 60 min (Table 15)
  Log Reductions/mL: Total Kill
[1]; 0.66%, 20° C., 15 min (Table 15)
  Log Reductions/mL: Total Kill
[1]; 0.7%, 20° C., 15 min (Table 5)
  Log Reductions/mL: Total Kill
[1]; 1% solution, 5 minutes, 20° C.
  logs killed: more than 4 logs
[1]; ~1%, 20° C., 5 min (Table 15)
  Log Reductions/mL: 4.5 log reductions/mL
Solubility in water
  solubility in water: about 1%
